Assay results: US7781398B2, “Drug comprising synthetic peptide analogs for the treatment of cancer” (Dabur Pharma Ltd., priority 2002, dated 2010)
Non-standard residues stand in square brackets, D forms with d. Residues, ends and D or L forms follow the SMILES beside them. No end group written: not given here. Ac5c = NC1(C(=O)O)CCCC1; Aib = CC(C)(N)C(=O)O

What was measured:
Type in all cases: cell-based
[1] = tested on: intracellular cAMP in MCF7 breast cancer cells; experiment: cAMP levels in breast cancer cells (sandwich ELISA); settings: 30 minutes, final peptide concentration 10^−9M, Forskolin 1 micromolar
Procedure: Enzyme linked sandwich immunosorbent assay was carried out on breast cancer cells (MCF7) to study the modulation in levels of cAMP upon treatment with the peptides and their combinations. The cells were cultured in sterile 6 well plates at a density of 0.5×10^6/well in DMEM supplemented with 10% FCS, and allowed to adhere overnight.
The cells were co-incubated with Forskolin at a concentration of 1 micromolar. The cells were scraped using a cell scraper and pelleted. The cell pellet was suspended in appropriate resuspension buffer (50 mM Tris, containing EDTA, 0.2 mM phenyl methyl sulfonyl fluoride (PMSF), 1 ug/ml pepstatin and 0.5 microgram/ml leupeptin adjusted to pH 7.4). The cell extracts were transferred to microcentrifuge tubes and centrifuged for 5 minutes at 10000×g. cAMP standards ranging in concentrations from 200 units/ml to 0 units/ml were prepared immediately prior to the start of the assay. Fluorescein isothiocyanate (FITC) conjugated monoclonal antibody directed to cAMP was added to microtitre wells precoated with primary monoclonal antibody against cAMP. 50 ul of sample lysates, and cAMP standards were added in duplicates in the microtitre wells containing both the monoclonals to cAMP. The wells were incubated at room temperature for 2 hours. The microtitre wells were washed three times with appropriate wash buffer (PBS 50 mM, with Tween 0.5%) and the appropriate dilution of anti FITC horse radish peroxidase conjugate was added and incubated for 30 minutes. The microtitre wells were washed thrice with the wash buffer and subsequently with distilled water. Tetra-methylbenzidine was added to each well and incubated in dark for 30 minutes at room temperature. The absorbance was measured in each well at dual wavelength of 450/595 nm within 30 minutes of the addition of stop solution and the amount of cAMP present in the cell samples calculated.

[2] = tested on: tyrosine phosphatase in MiaPaCa2 cells; experiment: Tyrosine phosphatase activity in pancreatic cancer cells (colorimetric); settings: 30 minutes, final peptide concentration 10^−9M
Procedure: The quantitation of tyrosine phosphatase was carried out colorimetrically by using their synthetic biotin labeled tyrosine phosphorylated peptide substrates. The enzyme reaction was quenched by the addition of a specific inhibitor, and the phosphorylated and dephosphorylated substrate is immobilized by binding to the streptavidin coated microtitre plate. The fraction of the unmetabolized substrate is determined by its anti phospho tyrosine antibody directly conjugated to peroxidase.
The cells were cultured in sterile 6 well plates at a density of 0.5×10^6/well in DMEM supplemented with 10% FCS, and allowed to adhere overnight. The medium was changed to DMEM. The cells were treated with appropriate concentrations of the peptide and their combinations shown in Table 6, for 30 minutes, such that in each case the final peptide concentration was 10^−9M.
The cells were lysed in appropriate lysis buffer (50 mM Tris, containing EDTA, 0.2 mM PMSF, 1 microgram/microliter pepstatin and 0.5 microgram/microliter leupeptin adjusted to pH 7.4). […]
The quantitation of phosphatase enzyme activity was performed with 30 microliter of specific substrates and the reaction was quenched with the addition of 100 micromolar sodium orthvanadate. […] After 3 washings, 100 microliter of the substrate POD was added to the wells, and the absorbance was read at 405 nm.

Caspase-3 = Caspase-3 induction (DEVD-pNA colorimetric) in cancer cells; settings: each peptide 10^−8M, 6 hours
Procedure: PA-1 (Ovary), MDA.MB.453 (breast), HT29 (colon) and A549 (lung) cancer cells were cultured in 25 cm^2 tissue culture flasks at 37° C. in a humidified incubator containing 5% CO2. When cultures reached pre-confluence individual peptides of the combination and different combinations of the peptides as shown in Table 8 were added to different flasks such that the final concentration of each peptide in the flask was 10^−8M. The untreated flasks served as controls. The cells were incubated with drug for 6 hours.
After 6 hours of incubation cells were collected by trypsin treatment followed by centrifugation at 2000 r.p.m. for 10 minutes. The supernatant was gently removed and discarded and Lysis Buffer was added to the cell pellet (25 microliter of lysis buffer per 1×10^4 cells I a 15 ml conical tube) and incubated on ice for 10 minutes and centrifuged at 10,000-×g for 1 minute. 50 microliter of supernatant (cell lysate) was transferred to the wells of a 96-well plate. 2× Reaction buffer was prepared by adding 10 microliter of fresh DTT stock per 1 ml of 2× Reaction Buffer. 50 micro liter 2× Reaction Buffer was added to each well followed by addition of 5 micro liter of Caspase-3 colorimetric substrate (DEVD-pNA). The plate was incubated for 1-2 hours at 37° C. Following incubation the plate was read on a microplate reader at 405 nm-wavelength light the level of caspase enzymatic activity in the cell lys ate was directly proportional to the color reaction. The induction of caspase activity by the subcombinations was calculated as a percentage of control using the formula [(Sample OD/Control OD)−1]*100.

## CC(C)C[C@H](NC(=O)[C@H](Cc1c[nH]cn1)NC(=O)C(C)(C)NC(=O)[C@@H](NC(=O)[C@H](C)NC(=O)[C@H](Cc1c[nH]c2ccccc12)NC(=O)[C@H](CCC(N)=O)NC(=O)[C@H](N)Cc1ccccc1)C(C)C)C(N)=O [SEQ ID NO: 2, D-Phe-Gln-Trp-Ala-Val-Aib-His-Leu-NH2] (H-[dF]QWAV[Aib]HL-NH2; N-terminus assumed)
[1]
  cAMP (% Of Control): 15.4 ± 3.0 % Of Control

## CC(C)C[C@H](NC(=O)[C@@H](Cc1c[nH]c2ccccc12)NC(=O)[C@H](Cc1ccccc1)NC(=O)[C@@H](Cc1c[nH]c2ccccc12)NC(=O)[C@H](CCC(N)=O)NC(=O)[C@@H](Cc1ccccc1)NC(=O)[C@@H]1CCCN1C(=O)[C@H](CCCCN)NC(=O)[C@@H]1CCCN1C(=O)[C@H](N)CCCNC(=N)N)C(=O)NC1(C(N)=O)CCCC1 [SEQ ID NO: 3, D-Arg-Pro-Lys-Pro-D-Phe-Gln-D-Trp-Phe-D-Trp-Leu-Ac5c-NH2] (H-[dR]PKP[dF]Q[dW]F[dW]L[Ac5c]-NH2; N-terminus assumed)
[2]
  % Induction of Tyrosine phosphatase: 14.3 ± 3.5%
Caspase-3; A549
  Caspase-3 % INDUCTION: 38.5 ± 3.8%
Caspase-3; HT29
  Caspase-3 % INDUCTION: 28.4 ± 2.4%
Caspase-3; MDA.MB453
  Caspase-3 % INDUCTION: 22.8 ± 3.8%
Caspase-3; PA-1
  Caspase-3 % INDUCTION: 46.2 ± 2.1%
[1]
  cAMP (% Of Control): 13.3 ± 4.0 % Of Control

## C[C@@H](O)[C@H](NC(=O)[C@H]1NC(=O)[C@H]([C@@H](C)O)NC(=O)[C@H](CCCN)NC(=O)[C@@H](Cc2c[nH]c3ccccc23)NC(=O)[C@H](Cc2ccc(O)cc2)NC(=O)[C@@H](NC(=O)[C@H](N)Cc2ccccc2)CSSC1(C)C)C(N)=O [SEQ ID NO: 4, D-Phe-Cys-Tyr-D-Trp-Orn-Thr-Pen-Thr-NH2]
[2]
  % Induction of Tyrosine phosphatase: 15.6 ± 4.5%
Caspase-3; A549
  Caspase-3 % INDUCTION: 28.4 ± 2.8%
Caspase-3; HT29
  Caspase-3 % INDUCTION: 18.6 ± 1.9%
Caspase-3; MDA.MB453
  Caspase-3 % INDUCTION: 18.9 ± 1.0%
Caspase-3; PA-1
  Caspase-3 % INDUCTION: 34.8 ± 1.3%
[1]
  cAMP (% Of Control): 12.9 ± 5.0 % Of Control

## LMYPTYLK-OH [SEQ ID NO: 1, Leu-Met-Tyr-Pro-Thr-Tyr-Leu-Lys-OH]
[1]
  cAMP (% Of Control): 25.2 ± 4.5 % Of Control
